The CheMixHub viscosity set

Test: xn = mol fraction of the nth substance listed

C1CCOC1 + CCO
Details	viscosity [mPa·s]
298.15 K, 101 kPa, x1 = 0.4	0.6728

CC(C)=O + CCO
298.15 K, 101 kPa
Details	viscosity [mPa·s]
x1 = 0.1868	0.7168
x1 = 0.2337	0.651
x1 = 0.3003	0.5795
x1 = 0.3162	0.5636
x1 = 0.378	0.5162
x1 = 0.3887	0.5028
x1 = 0.4579	0.462
x1 = 0.6529	0.3836

CC1COC(=O)O1 (stereo unspecified) + CCO
298 K, 101.3 kPa
Details	viscosity [mPa·s]
x1 = 0.021	1.1
x1 = 0.0404	1.116
x1 = 0.06	1.131
x1 = 0.0806	1.147
x1 = 0.0987	1.161
x1 = 0.2008	1.237
x1 = 0.3003	1.312
x1 = 0.4003	1.397
x1 = 0.5002	1.497
x1 = 0.6002	1.619
x1 = 0.7001	1.768
x1 = 0.8	1.947
x1 = 0.9005	2.165

COc1ccccc1 + CCO
298.15 K, 101 kPa
Details	viscosity [mPa·s]
x1 = 0.07099	1.045
x1 = 0.152	0.989
x1 = 0.2432	0.947
x1 = 0.3485	0.918
x1 = 0.4715	0.904
x1 = 0.6165	0.905
x1 = 0.7928	0.924

Cc1ccccc1 + CCO
Details	viscosity [mPa·s]
293.2 K, 101.32 kPa, x2 = 0.05	0.568
293.2 K, 101.32 kPa, x2 = 0.136	0.587
293.2 K, 101.32 kPa, x2 = 0.28	0.616
293.2 K, 101.32 kPa, x2 = 0.55	0.731
293.2 K, 101.32 kPa, x2 = 0.735	0.861
303 K, 101 kPa, x1 = 0.1006	0.821
303 K, 101 kPa, x1 = 0.2012	0.786
303 K, 101 kPa, x1 = 0.3009	0.724
303 K, 101 kPa, x1 = 0.3981	0.686
303 K, 101 kPa, x1 = 0.5016	0.643
303 K, 101 kPa, x1 = 0.6052	0.613
303 K, 101 kPa, x1 = 0.7001	0.602
303 K, 101 kPa, x1 = 0.8095	0.569
303 K, 101 kPa, x1 = 0.9011	0.551
303 K, 101.33 kPa, x2 = 0.3333	0.574
303 K, 101.33 kPa, x2 = 0.5714	0.651
303 K, 101.33 kPa, x2 = 0.75	0.774
303 K, 101.33 kPa, x2 = 0.8889	0.927
303.15 K, 101.33 kPa, x1 = 0.0692	0.893
303.15 K, 101.33 kPa, x1 = 0.1849	0.803
303.15 K, 101.33 kPa, x1 = 0.3191	0.699
303.15 K, 101.33 kPa, x1 = 0.5285	0.596
303.15 K, 101.33 kPa, x1 = 0.5858	0.575
303.15 K, 101.33 kPa, x1 = 0.6901	0.546
303.15 K, 101.33 kPa, x1 = 0.7906	0.527
303.15 K, 101.33 kPa, x1 = 0.8565	0.519
303.15 K, 101.33 kPa, x1 = 0.9213	0.524
308.15 K, 101.33 kPa, x1 = 0.0692	0.814
308.15 K, 101.33 kPa, x1 = 0.1849	0.736
308.15 K, 101.33 kPa, x1 = 0.3191	0.642
308.15 K, 101.33 kPa, x1 = 0.5285	0.552
308.15 K, 101.33 kPa, x1 = 0.5858	0.533
308.15 K, 101.33 kPa, x1 = 0.6901	0.507
308.15 K, 101.33 kPa, x1 = 0.7906	0.491
308.15 K, 101.33 kPa, x1 = 0.8565	0.486
308.15 K, 101.33 kPa, x1 = 0.9213	0.493
313 K, 101.33 kPa, x2 = 0.3333	0.504
313 K, 101.33 kPa, x2 = 0.5714	0.557
313 K, 101.33 kPa, x2 = 0.75	0.654
313 K, 101.33 kPa, x2 = 0.8889	0.778
323 K, 101.33 kPa, x2 = 0.3333	0.446
323 K, 101.33 kPa, x2 = 0.5714	0.479
323 K, 101.33 kPa, x2 = 0.75	0.557
323 K, 101.33 kPa, x2 = 0.8889	0.648

COc1ccccc1 + CCOC(=O)OCC
viscosity [mPa·s], 100 kPa
Details	x2 = 0.1064	x2 = 0.203	x2 = 0.3032	x2 = 0.3994	x2 = 0.499	x2 = 0.6007	x2 = 0.7032	x2 = 0.7988	x2 = 0.8975
303.15 K	0.894	0.867	0.84	0.817	0.793	0.771	0.75	0.731	0.714
308.15 K	0.824	0.801	0.778	0.759	0.738	0.719	0.702	0.687	0.673
313.15 K	0.767	0.748	0.729	0.711	0.694	0.677	0.662	0.649	0.636

C1CCOC1 + CCOC(C)=O
101.32 kPa
Details	viscosity [mPa·s]
303.15 K, x2 = 0.0431	0.443
303.15 K, x2 = 0.0837	0.437
303.15 K, x2 = 0.128	0.434
303.15 K, x2 = 0.1718	0.431
303.15 K, x2 = 0.2625	0.425
303.15 K, x2 = 0.3504	0.421
303.15 K, x2 = 0.4521	0.416
303.15 K, x2 = 0.6544	0.41
303.15 K, x2 = 0.8229	0.407
303.15 K, x2 = 0.8817	0.407
303.15 K, x2 = 0.9396	0.406
313.15 K, x2 = 0.2044	0.384
313.15 K, x2 = 0.4059	0.375
313.15 K, x2 = 0.5072	0.373
313.15 K, x2 = 0.6002	0.37
313.15 K, x2 = 0.7996	0.369

CC(C)=O + CCOC(C)=O
viscosity [mPa·s], 101 kPa
Details	x2 = 0.0999	x2 = 0.2009	x2 = 0.3284	x2 = 0.4015	x2 = 0.4977	x2 = 0.5969	x2 = 0.6915	x2 = 0.7908	x2 = 0.9076
293.15 K	0.3328	0.3471	0.3615	0.3751	0.3871	0.4003	0.4129	0.4274	0.4419
298.15 K	0.317	0.3305	0.3438	0.3563	0.3674	0.3795	0.3913	0.4035	0.4179
303.15 K	0.3022	0.3151	0.3274	0.3375	0.3502	0.3603	0.3716	0.3825	0.3961
313.15 K	0.2757	0.2877	0.2982	0.3065	0.3182	0.3262	0.3364	0.3455	0.3573

CCCCn1cc[n+](C)c1.O=S(=O)([O-])C(F)(F)F + CCOC(C)=O
100 kPa
Details	viscosity [mPa·s]
298.15 K, x1 = 0.8932	54.68
303.15 K, x1 = 0.3056	8.97
308.15 K, x1 = 0.3056	7.31
313.15 K, x1 = 0.3056	6.63
313.15 K, x1 = 0.3978	9.79
318.15 K, x1 = 0.3056	5.79
323.15 K, x1 = 0.3056	4.97
323.15 K, x1 = 0.3978	7.21
323.15 K, x1 = 0.5067	9.88
